According to patent US20080249033A1, “Carbamate Linked Macrolides Useful For The Treatment Of Microbial Infections” (priority 2004, published 2008):

What was measured:
Format in all cases: cell-based
[1] = test system: erythromycin resistant strains of Streptococcus pyogenes; test: MIC, erythromycin resistant strains
[2] = test system: erythromycin resistant strains of Streptococcus pneumoniae; test: MIC, erythromycin resistant strains
E. faecalis ATCC 0004 = test: MIC, microtiter broth serial dilution test; conditions: Enterococcus faecalis, ATCC0004
S. pyogenes 0542 = test: MIC, microtiter broth serial dilution test; conditions: Streptococcus pyogenes
S. pneumoniae 0541 = test: MIC, microtiter broth serial dilution test; conditions: Streptococcus pneumoniae
[3] = test system: S. aureus Smith ATCC 0329; test: MIC, microtiter broth serial dilution test; conditions: Staphylococcus aureus, ATCC0329
H. influenzae ATCC 0529 = test: MIC, microtiter broth serial dilution test; conditions: Haemophilus influenzae, ATCC0529
M. catarrhalis ATCC 0324 = test: MIC, microtiter broth serial dilution test; conditions: Moraxella catarrhalis, ATCC0324

| MIC [1] | MIC [2] | MIC (E. faecalis ATCC 0004) | MIC (S. pyogenes 0542) | MIC (S. pneumoniae 0541) | MIC [3] | MIC (H. influenzae ATCC 0529) | MIC (M. catarrhalis ATCC 0324) | Compound |
| --- | --- | --- | --- | --- | --- | --- | --- | --- |
| ≤ 0.125 µg/mL | ≤ 0.125 µg/mL | ≤ 0.125 µg/mL | ≤ 0.125 µg/mL | ≤ 0.125 µg/mL | ≤ 0.125 µg/mL | ≤ 2 µg/mL | – | CC[C@H]1OC(=O)[C@H](C)[C@@H](OC2C[C@@](C)(OC)[C@@H](OC(=O)NCCOCCOCCNc3cc4c(=O)c(C(=O)O)cn(C5CC5)c4cc3Cl)[C@H](C)O2)[C@H](C)[C@@H](OC2O[C@H](C)C[C@H](N(C)C)[C@H]2O)[C@](C)(OC)C[C@@H](C)C(=O)[C@H](C)[C@@H](O)[C@]1(C)O (some centres unmarked) [Example 1, 4″-O-2-{2-[2-(3-Carboxy-7-chloro-1-cyclopropyl-4-oxo-1,4-dihydro-quinolin-6-ylamino)-ethoxy]-ethoxy}-ethylcarbamoyl-6-O-methyl erythromycin A] |
| ≤ 0.125 µg/mL | ≤ 0.125 µg/mL | ≤ 0.125 µg/mL | ≤ 0.125 µg/mL | ≤ 0.125 µg/mL | ≤ 0.125 µg/mL | ≤ 2 µg/mL | – | CC[C@H]1OC(=O)[C@H](C)[C@@H](OC2C[C@@](C)(OC)[C@H](OC(=O)NCCOCCOCCNc3cc4c(=O)c(C(=O)O)cn(C5CC5)c4cc3Cl)[C@@H](C)O2)[C@H](C)[C@@H](O[C@@H]2O[C@H](C)CC(N(C)C)[C@H]2O)[C@](C)(O)C[C@@H](C)CN(C)[C@H](C)[C@@H](O)[C@]1(C)O (some centres unmarked) [Example 2, 4″-O-2-{2-[2-(3-Carboxy-7-chloro-1-cyclopropyl-4-oxo-1,4-dihydro-quinolin-6-ylamino)-ethoxy]-ethoxy}-ethylcarbamoyl-azithromycin] |
| – | – | ≤ 0.125 µg/mL | ≤ 0.125 µg/mL | ≤ 0.125 µg/mL | ≤ 0.125 µg/mL | ≤ 0.125 µg/mL | ≤ 0.5 µg/mL | CC[C@H]1OC(=O)[C@H](C)[C@@H](O[C@H]2C[C@@](C)(OC)[C@@H](OC(=O)NCCOCCOCC#Cc3ccc4c(c3)c(=O)c(C(=O)O)cn4CC)[C@H](C)O2)[C@H](C)[C@@H](O[C@@H]2O[C@H](C)CC(N(C)C)[C@H]2O)[C@](C)(O)C[C@@H](C)CN(C)[C@H](C)[C@@H](O)[C@]1(C)O (some centres unmarked) [Example 3, 4″-(2-{2-[3-(3-Carboxy-1-ethyl-4-oxo-1,4-dihydro-quinolin-6-yl)-prop-2-ynyloxy]-ethoxy}-ethylcarbamoyl)-azithromycin] |
| – | – | ≤ 0.125 µg/mL | ≤ 0.125 µg/mL | ≤ 0.125 µg/mL | ≤ 0.125 µg/mL | ≤ 0.125 µg/mL | ≤ 0.5 µg/mL | CC[C@H]1OC(=O)[C@H](C)[C@@H](O[C@H]2C[C@@](C)(OC)[C@@H](OC(=O)NCCOCCOCCCc3ccc4c(c3)c(=O)c(C(=O)O)cn4CC)[C@H](C)O2)[C@H](C)[C@@H](O[C@@H]2O[C@H](C)CC(N(C)C)[C@H]2O)[C@](C)(O)C[C@@H](C)CN(C)[C@H](C)[C@@H](O)[C@]1(C)O (some centres unmarked) [Example 4, 4,1-(2-{2-[3-(3-Carboxy-1-ethyl-4-oxo-1,4-dihydro-quinolin-6-yl)-propoxy]-ethoxy}-ethylcarbamoyl)-azithromycin] |
